Test results: patent US20220105058A1, “USE OF 3-O-SULFAMATE-16,16-DIMETHYL-D-HOMOEQUILENIN TO TREAT ONCOLOGICAL DISEASES” (priority 2018, published 2022)
Values joined by “and” are separate entries in the source; they are usually repeats but may differ in a detail not shown here. Equal values may be shown once. Read-outs that look alike come from different tables or passages of the source. Marks after values point to notes of the source that are not given here.

Legend:
[1] = tested on: Breast tumors (BT) in female FBV/N mice transgenic for HER-2/neu; assay: antitumor activity in mice with HER-2/neu breast tumors; type: in vivo, FVB mice transgenic for HER-2/neu; settings: for frequency of tumor stabilizations: end of observation; for antitumor efficacy compared with Tamoxifen: mouse, in vivo
From the text: The age of animals at the beginning of the study was 21-41 weeks and weight was 25-30 g.
The control groups were given the olive oil (placebo).
TGI=(Vctrl−Vexp)/Vctrl×100(%),

[2] = tested on: MCF-7 human cells culture (breast adenocarcinoma); assay: proliferation of passaged MCF-7 cell culture; type: cell-based
Procedure: The study analysis was carried out on an passaged MCF-7 human cells culture culture (breast adenocarcinoma). Normal human dermal fibroblasts (HDF) of early passages were used as a negative control. The cells were cultivated in Carrel vials in DMEM/F12 medium (Biolot) with 1.0% of antibiotic-free fetal bovine embryonic serum (Biolot) added in the 5% CO2 atmosphere, at 37° C.
The cells were seeded on Carrel vials at 50×10^4 cells per flask. To study the proliferative activity of the cells under conditions of sulfatase inhibition, 24 hours after seeding the culture medium […], and then these tumor cell lines were incubated for various periods of time (24 to 72 hrs). The inhibitor was dissolved in DMSO. […] To exclude the cytotoxic effect of DMSO, a control sample comprising DMSO without sulfatase inhibitor was prepared. To exclude nonspecific detrimental effects of the compounds, normal human skin fibroblasts were used. Then the cells were detached with the versene-trypsin solution (Biolot), plated onto Carrel vials containing a fresh complete culture medium. The cells were counted when untreated control cells reached the maximum cell density per unit of surface area of a culture flask (monolayer), and their number was set as 100%. The proliferative activity of all of the studied cell cultures exposed to sulfatase inhibitors was determined in triplicate.

[3] = tested on: subcutaneous xenografts of human SKBR-3 breast cancer
Procedure: (§1) A comparative study of the medicaments in vivo was performed in female Balb/c nude mice with subcutaneously (s.c.) transplanted tumor cells. The experiment lasted for 29 days after the medicament administration for the first time (the administration of the medicaments was started on Day 5 after the tumor strain transplantation).
(§2) The medicament and the reference drug were administered intragastrically multiple times at doses of 30 mg/kg and 10 mg/kg daily for 21 days.
(§3) The placebo group was given 1% starch solution intragastrically in equivalent volumes and in the same regime. Tumor nodes were measured 2 times per week. […] Once the treatment was completed, the last tumor measurement was carried out, and animals were weighed and euthanized.
(§4) The animals were weighed on the first day of the experiment, and then 2 times per week throughout the experiment according to the research protocol.
(§5) A tumor node was measured after tumor transplantation 2 times per week throughout the experiment. The tumor node volume was determined by the formula:
(§6) V=π/6*L*W*H, where L, W, H are the linear size dimensions of the tumor.
(§7) Determination of Antitumor Activity
(§8) Tumor growth inhibition index (TGI) was used as a criterion for the study of the medicament efficacy and calculated by the formula as follows:
(§9) TGI (%)=|Vctrl−Vexp|/Vctrl*100
(§10) where Vctrl and Vexp are the average tumor volume (mm^3) in the control and in the experimental groups, respectively.
(§11) After the course of the treatment, the animals were euthanized by the cervical dislocation of cervical vertebrae.
(§12) The statistical data processing was conducted using SPSS 21 package (license No. 20130626-3). Descriptive statistics in the study includes the following: arithmetic average, standard deviation (SD), standard mean error (SE), median, quartiles, interquartile range. To compare quantitative characteristics in the groups, the Mann-Whitney-Wilcoxon test was used without corrections for multiple comparisons. The results were considered statistically significant at p<0.05.

[4] = tested on: subcutaneous xenografts of human TNBC-Kad breast cancer
Procedure: as §1, §2, §3, §4, §5, §6, §7, §8, §9, §10, §11, §12

[5] = pilot experiment, medicament 10 mg/kg, Day 10

CC1(C)CC(=O)[C@@]2(C)CCc3c(ccc4cc(OS(N)(=O)=O)ccc34)[C@@H]2C1 [medicament, 3-O-sulfamate-16,16-dimethyl-D-homoequilenin]
average total volume of tumors in mice (M) ([1]; medicament 100 mg/kg, Day 21): 2.75** cm^3 | average volume of tumors (M) ([1]; medicament 100 mg/kg, Day 21): 0.57* cm^3 | relative change of the average total volume to that of Day − 1 (M) ([1]; medicament 100 mg/kg, Day 21): 75^aa % | TGI (average total tumor volume) ([1]; medicament 100 mg/kg, Day 28): 53% | TGI (average tumor volume) ([1]; medicament 100 mg/kg, Day 28): 42% | average total volume of tumors in mice (M) ([1]; medicament 100 mg/kg, Day 28): 2.71**^a cm^3 | average volume of tumors (M) ([1]; medicament 100 mg/kg, Day 28): 0.56**^a cm^3 | relative change of the average total volume to that of Day − 1 (M) ([1]; medicament 100 mg/kg, Day 28): 69**^aa % | Total number of new tumors ([1]; medicament 100 mg/kg, end of experiment): 15 | frequency of tumor stabilizations ([1]; medicament 100 mg/kg): 27% | frequency of tumor stabilizations ([1]; medicament 100 mg/kg, listed as compound): 27% | antitumor efficacy compared with Tamoxifen [1]: statistically significantly more effective | antitumor efficacy compared with Tamoxifen ([1]; listed as agent): inhibits the proliferation of tumours more effectively | proliferation of tumor MCF-7 cells [2]: completely inhibits proliferation | proliferation of tumor MCF-7 cells ([2]; concentration of 20 μg/ml): completely blocks the proliferation | number of dead mice before the end of the observation period ([3]; medicament 10 mg/kg): 5 out of 7 | average tumor volume (M ± m) ([3]; medicament 10 mg/kg i.g. daily, Day 0 of treatment): 1.0±0.4 mm^3 | average tumor volume (M ± m) ([3]; medicament 10 mg/kg i.g. daily, Day 0 of treatment, listed as Steroid): 1.0 ± 0.4 mm^3 | average tumor volume (M ± m) ([3]; medicament 10 mg/kg, Day 3): 1.2 ± 0.4 mm^3 | SKBR-3 growth inhibition, TGI ([3]; medicament 10 mg/kg, Day 7): 74.3% | average tumor volume (M ± m) ([3]; medicament 10 mg/kg, Day 7): 5.1±2.3 mm^3 | average tumor volume (M ± m) ([3]; medicament 10 mg/kg, Day 7, listed as Steroid): 5.1 ± 2.3 mm^3 | SKBR-3 growth inhibition, TGI ([3]; medicament 10 mg/kg, Day 10): 68.0% | average tumor volume (M ± m) ([3]; medicament 10 mg/kg, Day 10): 24.8±12.2 mm^3 | average tumor volume (M ± m) ([3]; medicament 10 mg/kg, Day 10, listed as Steroid): 24.8 ± 12.2 mm^3 | SKBR-3 growth inhibition, TGI ([3]; medicament 10 mg/kg, Day 14): 94.3% | average tumor volume (M ± m) ([3]; medicament 10 mg/kg, Day 14): 6.9±2.2 mm^3 | average tumor volume (M ± m) ([3]; medicament 10 mg/kg, Day 14, listed as Steroid): 6.9 ± 2.2 mm^3 | SKBR-3 growth inhibition, TGI ([3]; medicament 10 mg/kg, Day 17): 90.6% | average tumor volume (M ± m) ([3]; medicament 10 mg/kg, Day 17): 17.6±0.7 mm^3 | average tumor volume (M ± m) ([3]; medicament 10 mg/kg, Day 17, listed as Steroid): 17.6 ± 0.7 mm^3 | SKBR-3 growth inhibition, TGI ([3]; medicament 10 mg/kg, Day 21): 90.2% | average tumor volume (M ± m) ([3]; medicament 10 mg/kg, Day 21): 26.1±12.1 mm^3 | average tumor volume (M ± m) ([3]; medicament 10 mg/kg, Day 21, listed as Steroid): 26.2 ± 12.1 mm^3 | SKBR-3 growth inhibition, TGI ([3]; medicament 10 mg/kg, Day 24): 86.3% | average tumor volume (M ± m) ([3]; medicament 10 mg/kg, Day 24): 32.0 ± 6.9 mm^3 | average tumor volume (Vaverage) [3, 5]: 2.2±2.0 mm^3 | maximum TGI [3, 5]: 91.2% | number of dead mice before the end of the observation period ([4]; medicament 10 mg/kg): 10 out of 10 | average tumor volume (M ± m) ([4]; medicament 10 mg/kg, Day 3): 5.65 ± 1.64 mm^3 | TNBC_Kad growth inhibition, TGI ([4]; medicament 10 mg/kg, Day 7): 66.1% | average tumor volume (M ± m) ([4]; medicament 10 mg/kg, Day 7): 27.0±5.1 mm^3 and 26.98 ± 5.12 mm^3 | TNBC_Kad growth inhibition, TGI ([4]; medicament 10 mg/kg, Day 10): 78.7% | average tumor volume (M ± m) ([4]; medicament 10 mg/kg, Day 10): 21.6±4.9 mm^3 and 21.59 ± 4.88 mm^3 | TNBC_Kad growth inhibition, TGI ([4]; medicament 10 mg/kg, Day 14): 83.1% | average tumor volume (M ± m) ([4]; medicament 10 mg/kg, Day 14): 27.6±2.6 mm^3 and 27.59 ± 2.57 mm^3 | TNBC_Kad growth inhibition, TGI ([4]; medicament 10 mg/kg, Day 17): 76.1% | average tumor volume (M ± m) ([4]; medicament 10 mg/kg, Day 17): 46.3±5.3 mm^3 and 46.25 ± 5.31 mm^3 | average tumor volume (M ± m) ([4]; medicament i.g. 10 mg/kg, Day 0 of treatment): 1.6±0.4 mm^3 and 1.57 ± 0.35 mm^3 | efficacy compared with tamoxifen and letrozole ([4]; xenograft human tumor of triple negative breast cancer): more effective than tamoxifen and aromatase inhibitor letrozole
